Legend:
THLE‐2 cells = test: CCK‐8 cell viability assay, non‐tumor THLE‐2; format: cell-based, human; details: CCK‐8, 48 h, triplicate; peptides 5–45 μg·mL^−1; 5‐FU positive control 0.1–5 mM; vs negative control
Text: (§1) Human breast cancer MCF‐7 (RRID:CVCL_0031), human lung cancer A549 (RRID:CVCL_0023), human colon cancer HCT‐116 (RRID:CVCL_0291), human cervical cancer Hela (RRID:CVCL_0030), human hepatoma HepG2 (RRID:CVCL_0027), human gastric cancer SGC‐7901 (RRID:CVCL_0520) and human non‐tumor mamma gland epithelial MCF‐10A (RRID:CVCL_0598) and transformed human liver epithelial‐2 (THLE‐2) (RRID:CVCL_3803) cells were obtained from Shanghai Donghuan Biotechnology (Shanghai, China). All cell lines had been authenticated in the past 3 years and again within 4 months after completion of the experiments. All cell lines had been tested for mycoplasma contamination frequently. Their identities were characterized by short tandem repeat analysis. All of these cell lines were cultured in high glucose Dulbecco's modified Eagle's medium supplemented by 10% fetal bovine serum, 100 units·mL^−1 penicillin and 100 μg·mL^−1 streptomycin (complete culture medium).
(§2) MCF‐7 cells (1 × 10^4 cells per well) were treated in triplicate with different doses of each type of RC extract in 96‐well plates for varying time periods. The negative control cells were treated with the diluent of physiological saline, whereas positive control cells were treated with different concentrations (0.1–5 mM) of 5‐fluorouracil (5‐FU) (Leica, Wetzlar, Germany). During the last hour of culture, each well of cells was treated with 10 μL of CCK‐8 solution. The absorbance of the supernatants of individual wells was measured at 450 nm using a microplate reader. Similarly, the effect of different synthesized RCPs (5–45 μg·mL^−1) on the viability of different types of human cancer cells was tested with CCK‐8 assays using the diluent of physiological saline containing the same concentration of dimethylsulfoxide as a negative control and the same concentrations of 5‐FU as the positive controls. Ten RCPs with a predicted strong bioactivity were synthesized by GenScript ([…]) and their purity, sequences and solubility are shown in Table 1. […] The formula used to calculate the cytotoxicity rate of each concentration of RCP was: Cytotoxicity rate (%) = (absorbance value of the control group − absorbance value of the experimental group)/absorbance value of the control group × 100%. In addition, MCF‐7 cells were treated with each type of RCP at 45 μg·mL^−1 for 12–72 h and the dynamic impact of RCP treatment on the viability of MCF‐7 cells was determined every 12 h using CCK‐8 assays.
(§3) Data are expressed as the mean ± SEM. The data distribution was analyzed by Shapiro–Wilk test. The IC50 values of each peptide for individual cell lines were determined using the PRISM, version 8 (GraphPad Software Inc.). Briefly, all dose–response data were converted into […], which were automatically analyzed by PRISM for non‐linear regression to determine and report the IC50 and its SD for each peptide in a specific cell line. The difference among groups was analyzed by analysis of variance and post‐hoc Tukey's tests and the comparison between groups was performed using Student's t‐test and PRISM, version 8 (GraphPad Software Inc.). P < 0.05 was considered statistically significant.

MCF‐10A cells = test: CCK‐8 cell viability assay, non‐tumor MCF‐10A; format: cell-based, human; details: CCK‐8, 48 h, triplicate; peptides 5–45 μg·mL^−1; 5‐FU positive control 0.1–5 mM; vs negative control
Text: as §1, §2, §3

HCT‐116 cells = test: CCK‐8 cell viability assay, HCT‐116; format: cell-based, human; details: CCK‐8, 48 h, triplicate; peptides 5–45 μg·mL^−1; 5‐FU positive control 0.1–5 mM; vs negative control
Text: as §1, §2, §3

SGC‐7901 cells = test: CCK‐8 cell viability assay, SGC‐7901; format: cell-based, human; details: CCK‐8, 48 h, triplicate; peptides 5–45 μg·mL^−1; 5‐FU positive control 0.1–5 mM; vs negative control
Text: as §1, §2, §3

MCF‐7 cells = test: CCK‐8 cell viability assay, MCF‐7; format: cell-based, human; details: for dynamic cytotoxicity against MCF‐7 cells: 45 μg·mL^−1, 12–72 h, CCK‐8 every 12 h, maintained at highest levels to 72 h
Text: as §1, §2, §3

A549 cells = test: CCK‐8 cell viability assay, A549; format: cell-based, human; details: CCK‐8, 48 h, triplicate; peptides 5–45 μg·mL^−1; 5‐FU positive control 0.1–5 mM; vs negative control
Text: as §1, §2, §3

Hela cells = test: CCK‐8 cell viability assay, Hela; format: cell-based, human; details: CCK‐8, 48 h, triplicate; peptides 5–45 μg·mL^−1; 5‐FU positive control 0.1–5 mM; vs negative control
Text: as §1, §2, §3

HepG2 cells = test: CCK‐8 cell viability assay, HepG2; format: cell-based, human; details: CCK‐8, 48 h, triplicate; peptides 5–45 μg·mL^−1; 5‐FU positive control 0.1–5 mM; vs negative control
Text: as §1, §2, §3

[1] = test system: cancer cells (MCF‐7, A549, HCT‐116, Hela, HepG2, SGC‐7901) vs non‐tumor MCF‐10A and THLE‐2 cells; test: CCK‐8 cytotoxicity, preference for cancer cells over non‐tumor cells; format: cell-based, human; design: cytotoxicity against non‐tumor MCF‐10A and THLE‐2 cells compared with tumor cell lines: dose or concentration left out as unconfirmed; details: for preference of cytotoxicity for cancer cells over non‐tumor cells: 5–45 μg·mL^−1, 48 h, CCK‐8; for cytotoxicity against non‐tumor MCF‐10A and THLE‐2 cells compared with tumor cell lines: 48 h, P < 0.05 or P < 0.01
Text: as §1, §2, §3

[2] = Solubility of the synthesized peptides; format: physicochemical; details: for aqueous solubility: in words; for Solubility: solvent given for the synthesized peptide (GenScript)
[3] = CCK‐8, 48 h, triplicate, peptides 5–45 μg·mL^−1, 5‐FU positive control 0.1–5 mM, vs negative control

Compound	aqueous solubility [2]	Solubility [2]	viability of non‐tumor THLE‐2 cells (THLE‐2 cells)	viability of non‐tumor MCF‐10A cells (MCF‐10A cells)	viability of HCT‐116 cells (HCT‐116 cells)	viability of SGC‐7901 cells (SGC‐7901 cells)	viability of MCF‐7 cells (MCF‐7 cells; [3])	viability of MCF‐7 cells (MCF‐7 cells; RC extract experiment, positive control 0.1–5 mM, dose‐dependent, P < 0.01)	viability of A549 cells (A549 cells)	viability of Hela cells (Hela cells)	viability of HepG2 cells (HepG2 cells)	preference of cytotoxicity for cancer cells over non‐tumor cells [1]	cytotoxicity against non‐tumor MCF‐10A and THLE‐2 cells compared with tumor cell lines [1]	dynamic cytotoxicity against MCF‐7 cells (MCF‐7 cells)
O=c1[nH]cc(F)c(=O)[nH]1 [5‐FU, 5‐fluorouracil, reference compound]	–	–	significantly decreased the viability	significantly decreased the viability	significantly decreased the viability	significantly decreased the viability	significantly decreased the viability	significantly reduced the viability	significantly decreased the viability	significantly decreased the viability	significantly decreased the viability	–	–	–
PAPPKPEPK [RCP‐9, synthesized 9‐mer renal cell peptide from Non‐histone chromosomal protein HMG‐17, trypsin digested]	–	Water, pH 7.0	decreased the viability	decreased the viability	decreased the viability	decreased the viability	decreased the viability	–	decreased the viability	decreased the viability	decreased the viability	did not preferably decrease the viability of tumor cells	–	–
QQHMKFGKKCWRKVWALLYA [RCP‐1, synthesized 20‐mer renal cell peptide from Docking protein 3, trypsin digested]	low aqueous solubility	0.1% Dimethylsulfoxide	only treatment with the highest doses of them slightly reduced the viability	only treatment with the highest doses of them slightly reduced the viability	significantly decreased the viability	significantly decreased the viability	significantly decreased the viability	–	significantly decreased the viability	significantly decreased the viability	significantly decreased the viability	potent cytotoxicity preferably against cancer cells	statistically lower than tumor cell lines	increased with time from 12 h post treatment to 48 h

More lines, main results first:

aqueous solubility [2]	Solubility [2]	Compound	viability of non‐tumor THLE‐2 cells (THLE‐2 cells)	viability of non‐tumor MCF‐10A cells (MCF‐10A cells)	viability of HCT‐116 cells (HCT‐116 cells)	viability of SGC‐7901 cells (SGC‐7901 cells)	viability of MCF‐7 cells (MCF‐7 cells; [3])	viability of MCF‐7 cells (MCF‐7 cells; RC extract experiment, positive control 0.1–5 mM, dose‐dependent, P < 0.01)	viability of A549 cells (A549 cells)	viability of Hela cells (Hela cells)	viability of HepG2 cells (HepG2 cells)	preference of cytotoxicity for cancer cells over non‐tumor cells [1]	cytotoxicity against non‐tumor MCF‐10A and THLE‐2 cells compared with tumor cell lines [1]	dynamic cytotoxicity against MCF‐7 cells (MCF‐7 cells)
low aqueous solubility	0.1% Dimethylsulfoxide	EWLKVPCLSTRLINPENMGF [RCP‐6, synthesized 20‐mer renal cell peptide from Sacsin molecular chaperone, trypsin digested]	only treatment with the highest doses of them slightly reduced the viability	only treatment with the highest doses of them slightly reduced the viability	significantly decreased the viability	significantly decreased the viability	significantly decreased the viability	–	significantly decreased the viability	significantly decreased the viability	significantly decreased the viability	potent cytotoxicity preferably against cancer cells	statistically lower than tumor cell lines	increased with time from 12 h post treatment to 48 h
–	Water, pH 7.0	FAGDDAPR [RCP‐4, synthesized 8‐mer renal cell peptide from Actin, cytoplasmic 2, trypsin digested]	decreased the viability	decreased the viability	decreased the viability	decreased the viability	decreased the viability	–	decreased the viability	decreased the viability	decreased the viability	did not preferably decrease the viability of tumor cells	–	–
–	0.1% Dimethylsulfoxide	GIYAPDSPRAF [RCP‐8, synthesized 11‐mer renal cell peptide from Vanin 1, protamex‐digested]	decreased the viability	decreased the viability	decreased the viability	decreased the viability	decreased the viability	–	decreased the viability	decreased the viability	decreased the viability	did not preferably decrease the viability of tumor cells	–	–
–	Water, pH 7.0	GPAGPQGPR [RCP‐3, synthesized 9‐mer renal cell peptide from Collagen alpha‐1 (I) chain, trypsin digested]	decreased the viability	decreased the viability	decreased the viability	decreased the viability	decreased the viability	–	decreased the viability	decreased the viability	decreased the viability	did not preferably decrease the viability of tumor cells	–	–
–	Water, pH 7.0	IYAPDSPRAF [RCP‐10, synthesized 10‐mer renal cell peptide from Vanin 1, protamex‐digested]	decreased the viability	decreased the viability	decreased the viability	decreased the viability	decreased the viability	–	decreased the viability	decreased the viability	decreased the viability	did not preferably decrease the viability of tumor cells	–	–
